In publication PMC10539501 (Nature Communications, 2023):
One block for each compound: values may come before it. Starred links: 1 amine or outer side, 2 acyl side, 3 side chain; linkers in the order of their positions; H or OH if unused. Non-standard residues stand in square brackets, D forms with d. Residues, ends and D or L forms follow the SMILES beside them. X6 = O=C([C@H](Cc1ccc(O)cc1)NC(=S)[C@H]1CCCN1[*:1])[*:2]; X5 = CC(C)C[C@H](NC(=S)[C@H](CC(C)C)N[*:1])C(=O)[*:2]; NMeY = CN[C@@H](Cc1ccc(O)cc1)C(=O)O; NMeL = CN[C@@H](CC(C)C)C(=O)O; dNMeL = CN[C@H](CC(C)C)C(=O)O

Legend:
[1] = type: physicochemical
[2] = PAMPA passive permeability; type: in vitro ADME;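 further: passive permeability across an artificial membrane in 96-well pre-coated PAMPA plates, which lack transporters and efflux systems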
Method: Encouraged by this, the passive permeability of the analogs was evaluated using an artificial membrane (PAMPA), which measures permeability of compounds in the absence of transporters and efflux systems[32].
96-well BD Corning® pre-coated PAMPA plates were used following the supplier’s protocol, details in Supplementary Information.

[3] = type: physicochemical; remark: listed apart in the source
physchem = conditions: pH 7.4
in vitro [4] = conditions: both, human, plasma
Method: (§1) Blood was freshly drawn from three healthy adults, two male and one person of 26–28 year old. […] The plasma was separated by centrifugation. […] For checking metabolic stability, the required volume of plasma was pre-incubated at 37 °C prior to the experiment for 2 min, followed by spiking with the peptides. At different time points, plasma was aliquoted. The supernatant was separated and used for RP-HPLC quantification. Rapid Equilibrium Dialysis (RED) assay was performed to assess the plasma protein binding of the peptides following the supplier’s protocol.

pepsin = pepsin (Sus scrofa, UniProt P00791); assay: in vitro; conditions: simulated gastric fluid, pH 1.2
Method: (§2) A stability assessment of the peptides was done in simulated gastric (SGF) and intestinal (SIF) fluids and human liver microsomes. The degradation kinetics of the aliquoted samples at desired time points were analyzed through RP-HPLC.

in vitro [5] = conditions: pig, simulated intestinal fluid
in vitro [6] = conditions: human, microsomes
Method: as §2

in vitro [7] = conditions: both, human, plasma; remark: listed apart in the source
Method: as §1

Chain of pepsin (P00791 60-385): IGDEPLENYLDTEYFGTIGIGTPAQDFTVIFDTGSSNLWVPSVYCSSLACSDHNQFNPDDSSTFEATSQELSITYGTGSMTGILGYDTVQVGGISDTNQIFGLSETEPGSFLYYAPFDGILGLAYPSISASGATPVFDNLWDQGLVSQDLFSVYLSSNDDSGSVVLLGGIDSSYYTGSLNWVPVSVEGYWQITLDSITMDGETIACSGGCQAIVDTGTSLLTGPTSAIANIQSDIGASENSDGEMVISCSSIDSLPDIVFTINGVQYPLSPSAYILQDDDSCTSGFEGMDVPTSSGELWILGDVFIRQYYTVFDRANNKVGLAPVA
Method for human liver microsomes: as §2

Compound: CC(C)C[C@@H]1NC(=O)[C@H](Cc2ccc(O)cc2)NC(=O)[C@H]2CCCN2C(=O)[C@H](CC(C)C)NC(=S)[C@H](CC(C)C)NC(=O)[C@@H](CC(C)C)NC1=O [10b] (cyclo(L[dL][X5][dP]Y))
% solubility [1]: 26%
Pe Avg [2]: 4.3 ×10⁻⁶ cm/s
Pe set1 [2]: 4.84 ×10⁻⁶ cm/s
Pe set2 [2]: 3.05 ×10⁻⁶ cm/s
Pe set3 [2]: 5.14 ×10⁻⁶ cm/s
Papp ([2]; Pe Avg): 4.3 ×10⁻⁶ cm/s
logD heptane ethylene glycol [3]: 0.62
Half lives (human liver microsomes): 19.0
logD (physchem): 1.42
fraction unbound (in vitro [4]): 0.31
half-life (pepsin): 0.283 h
remaining at 5 min (pepsin): 72%
remaining at 10 min (pepsin): 57%
remaining at 20 min (pepsin): 47%
remaining at 0.5 h (pepsin): 38%
remaining at 1 h (pepsin): 33%
remaining at 2 h (pepsin): 27%
remaining at 4 h (pepsin): 23%
remaining at 8 h (pepsin): 17%
remaining at 12 h (pepsin): 10%
remaining at 24 h (pepsin): 5%
half-life (in vitro [5]): 1.6 h
remaining at 10 min (in vitro [5]): 71.7%
remaining at 0.5 h (in vitro [5]): 53.6%
remaining at 1 h (in vitro [5]): 47.1%
remaining at 2 h (in vitro [5]): 39%
remaining at 4 h (in vitro [5]): 32.1%
remaining at 8 h (in vitro [5]): 26.6%
remaining at 12 h (in vitro [5]): 16.6%
remaining at 24 h (in vitro [5]): 10.3%
microsomal CLint (in vitro [6]): 73 µL/min/mg
remaining at 5 min (in vitro [6]): 85%
remaining at 10 min (in vitro [6]): 65%
remaining at 20 min (in vitro [6]): 49%
remaining at 0.5 h (in vitro [6]): 34%
remaining at 0.75 h (in vitro [6]): 28%
remaining at 1 h (in vitro [6]): 15%
half-life (in vitro [7]): 23 h
remaining at 1 h (in vitro [7]): 91%
remaining at 3 h (in vitro [7]): 85%
remaining at 5 h (in vitro [7]): 80%
remaining at 7 h (in vitro [7]): 76%
remaining at 9 h (in vitro [7]): 74%
remaining at 12 h (in vitro [7]): 59%
remaining at 24 h (in vitro [7]): 47%
remaining at 36 h (in vitro [7]): 33%
remaining at 48 h (in vitro [7]): 25%
remaining at 60 h (in vitro [7]): 15%
remaining at 72 h (in vitro [7]): 7%

Compound: CC(C)C[C@@H]1NC(=O)[C@H](Cc2ccc(O)cc2)NC(=S)[C@H]2CCCN2C(=O)[C@H](CC(C)C)NC(=O)[C@H](CC(C)C)NC(=O)[C@@H](CC(C)C)NC1=O [10d] (cyclo(LL[X6]L[dL]))
% solubility [1]: 22%
Pe Avg [2]: 4.2 ×10⁻⁶ cm/s
Pe set1 [2]: 2.03 ×10⁻⁶ cm/s
Pe set2 [2]: 5.97 ×10⁻⁶ cm/s
Pe set3 [2]: 4.7 ×10⁻⁶ cm/s
Papp ([2]; Pe Avg): 4.2 ×10⁻⁶ cm/s
logD heptane ethylene glycol [3]: 0.72
Half lives (human liver microsomes): 29.5
logD (physchem): 1.24
fraction unbound (in vitro [4]): 0.03
half-life (pepsin): 0.4 h
remaining at 5 min (pepsin): 75%
remaining at 10 min (pepsin): 66%
remaining at 20 min (pepsin): 56%
remaining at 0.5 h (pepsin): 44%
remaining at 1 h (pepsin): 37%
remaining at 2 h (pepsin): 29%
remaining at 4 h (pepsin): 21%
remaining at 8 h (pepsin): 16%
remaining at 12 h (pepsin): 6%
remaining at 24 h (pepsin): 2%
half-life (in vitro [5]): 1.35 h
remaining at 10 min (in vitro [5]): 79.4%
remaining at 0.5 h (in vitro [5]): 62.8%
remaining at 1 h (in vitro [5]): 56.2%
remaining at 2 h (in vitro [5]): 38.5%
remaining at 4 h (in vitro [5]): 31.9%
remaining at 8 h (in vitro [5]): 19.6%
remaining at 12 h (in vitro [5]): 11.2%
remaining at 24 h (in vitro [5]): 5.8%
microsomal CLint (in vitro [6]): 47 µL/min/mg
remaining at 5 min (in vitro [6]): 96%
remaining at 10 min (in vitro [6]): 71%
remaining at 20 min (in vitro [6]): 61%
remaining at 0.5 h (in vitro [6]): 50%
remaining at 0.75 h (in vitro [6]): 40%
remaining at 1 h (in vitro [6]): 20%
half-life (in vitro [7]): 20 h
remaining at 1 h (in vitro [7]): 86%
remaining at 3 h (in vitro [7]): 81%
remaining at 5 h (in vitro [7]): 78%
remaining at 7 h (in vitro [7]): 63%
remaining at 9 h (in vitro [7]): 59%
remaining at 12 h (in vitro [7]): 64%
remaining at 24 h (in vitro [7]): 46%
remaining at 36 h (in vitro [7]): 35%
remaining at 48 h (in vitro [7]): 31%
remaining at 60 h (in vitro [7]): 21%
remaining at 72 h (in vitro [7]): 19%

Compound: CC(C)C[C@@H]1NC(=O)[C@@H](CC(C)C)N(C)C(=O)[C@H](CC(C)C)NC(=O)[C@H](Cc2ccc(O)cc2)NC(=O)[C@H]2CCCN2C(=O)[C@H](CC(C)C)NC1=O [10g] (cyclo(LL[dP]YL[dNMeL]))
Papp ([2]; Pe Avg): 2.75 ×10⁻⁶ cm/s
Half lives (human liver microsomes): 16.8
logD (physchem): 1.01
fraction unbound (in vitro [4]): 0.35
half-life (pepsin): 0.325 h
remaining at 2 min (pepsin): 85%
remaining at 10 min (pepsin): 65%
remaining at 20 min (pepsin): 45%
remaining at 0.5 h (pepsin): 38%
remaining at 1 h (pepsin): 24%
remaining at 2 h (pepsin): 9%
remaining at 4 h (pepsin): 0%
remaining at 8 h (pepsin): 0%
remaining at 12 h (pepsin): 0%
half-life (in vitro [5]): 0.333 h
remaining at 10 min (in vitro [5]): 67%
remaining at 0.5 h (in vitro [5]): 41%
remaining at 1 h (in vitro [5]): 22%
remaining at 2 h (in vitro [5]): 10%
remaining at 4 h (in vitro [5]): 0%
remaining at 8 h (in vitro [5]): 0%
remaining at 12 h (in vitro [5]): 0%
microsomal CLint (in vitro [6]): 83 µL/min/mg
remaining at 2 min (in vitro [6]): 89%
remaining at 10 min (in vitro [6]): 67%
remaining at 20 min (in vitro [6]): 41%
remaining at 0.5 h (in vitro [6]): 25%
remaining at 0.75 h (in vitro [6]): 16%
remaining at 1 h (in vitro [6]): 8%
half-life (in vitro [7]): 15 h
remaining at 2 h (in vitro [7]): 92%
remaining at 4 h (in vitro [7]): 83%
remaining at 8 h (in vitro [7]): 69%
remaining at 16 h (in vitro [7]): 51%
remaining at 24 h (in vitro [7]): 28%
remaining at 48 h (in vitro [7]): 22%
remaining at 72 h (in vitro [7]): 13%

Further lines, results first:

Papp ([2]; Pe Avg): 3.2 ×10⁻⁶ cm/s
Half lives (human liver microsomes): 12.6
logD (physchem): 1.11
fraction unbound (in vitro [4]): 0.38
half-life (pepsin): 0.292 h
remaining at 2 min (pepsin): 86%
remaining at 10 min (pepsin): 58%
remaining at 20 min (pepsin): 47%
remaining at 0.5 h (pepsin): 30%
remaining at 1 h (pepsin): 17%
remaining at 2 h (pepsin): 11%
remaining at 4 h (pepsin): 5%
remaining at 8 h (pepsin): 2.5%
remaining at 12 h (pepsin): 1%
half-life (in vitro [5]): 1.83 h
remaining at 10 min (in vitro [5]): 90%
remaining at 0.5 h (in vitro [5]): 81%
remaining at 1 h (in vitro [5]): 68%
remaining at 2 h (in vitro [5]): 46%
remaining at 4 h (in vitro [5]): 32%
remaining at 8 h (in vitro [5]): 6%
remaining at 12 h (in vitro [5]): 3%
microsomal CLint (in vitro [6]): 113 µL/min/mg
remaining at 2 min (in vitro [6]): 93%
remaining at 10 min (in vitro [6]): 54%
remaining at 20 min (in vitro [6]): 53%
remaining at 0.5 h (in vitro [6]): 19%
remaining at 0.75 h (in vitro [6]): 12%
remaining at 1 h (in vitro [6]): 2.73%
half-life (in vitro [7]): 19 h
remaining at 2 h (in vitro [7]): 92%
remaining at 4 h (in vitro [7]): 83%
remaining at 8 h (in vitro [7]): 74%
remaining at 16 h (in vitro [7]): 58%
remaining at 24 h (in vitro [7]): 38%
remaining at 48 h (in vitro [7]): 26%
remaining at 72 h (in vitro [7]): 4%
Compound: CC(C)C[C@@H]1NC(=O)[C@H](Cc2ccc(O)cc2)NC(=O)[C@H]2CCCN2C(=O)[C@H](CC(C)C)N(C)C(=O)[C@H](CC(C)C)NC(=O)[C@@H](CC(C)C)NC1=O [10i] (cyclo(L[NMeL][dP]YL[dL]))

Papp ([2]; Pe Avg): 4.59 ×10⁻⁶ cm/s
Half lives (human liver microsomes): 28.7
logD (physchem): 0.98
fraction unbound (in vitro [4]): 0.21
half-life (pepsin): 0.367 h
remaining at 2 min (pepsin): 86%
remaining at 10 min (pepsin): 78%
remaining at 20 min (pepsin): 59%
remaining at 0.5 h (pepsin): 32%
remaining at 1 h (pepsin): 10%
remaining at 2 h (pepsin): 1%
remaining at 4 h (pepsin): 0%
remaining at 8 h (pepsin): 0%
remaining at 12 h (pepsin): 0%
half-life (in vitro [5]): 0.583 h
remaining at 10 min (in vitro [5]): 70%
remaining at 0.5 h (in vitro [5]): 58%
remaining at 1 h (in vitro [5]): 38%
remaining at 2 h (in vitro [5]): 21%
remaining at 4 h (in vitro [5]): 4.54%
remaining at 8 h (in vitro [5]): 0.525%
remaining at 12 h (in vitro [5]): 0%
microsomal CLint (in vitro [6]): 49 µL/min/mg
remaining at 2 min (in vitro [6]): 91%
remaining at 10 min (in vitro [6]): 77%
remaining at 20 min (in vitro [6]): 73%
remaining at 0.5 h (in vitro [6]): 46%
remaining at 0.75 h (in vitro [6]): 35%
remaining at 1 h (in vitro [6]): 9%
half-life (in vitro [7]): 11 h
remaining at 2 h (in vitro [7]): 75%
remaining at 4 h (in vitro [7]): 61%
remaining at 8 h (in vitro [7]): 56%
remaining at 16 h (in vitro [7]): 38%
remaining at 24 h (in vitro [7]): 25%
remaining at 48 h (in vitro [7]): 9%
remaining at 72 h (in vitro [7]): 4%
Compound: CC(C)C[C@@H]1NC(=O)[C@@H](CC(C)C)NC(=O)[C@H](CC(C)C)NC(=O)[C@H](Cc2ccc(O)cc2)N(C)C(=O)[C@H]2CCCN2C(=O)[C@H](CC(C)C)NC1=O [10j] (cyclo(LL[dP][NMeY]L[dL]))

Papp ([2]; Pe): 1.51 ×10⁻⁶ cm/s
logD heptane ethylene glycol [3]: -0.91
logD (physchem): -0.93
fraction unbound (in vitro [4]): 0.05
half-life (in vitro [7]): 16 h
Compound: C[C@@H](O)[C@@H]1NC(=O)[C@H](CCCCN)NC(=O)[C@@H](Cc2c[nH]c3ccccc23)NC(=S)[C@H](Cc2ccccc2)NC(=O)[C@@H]2CCCN2C(=O)[C@H](Cc2ccccc2)NC1=O [13f]
